In US20130303532A1, “IMIDAZOPYRAZINES FOR USE AS MPS-1 AND TKK INHIBITORS IN THE TREATMENT HYPERPROLIFERATIVE DISORDERS” (BAYER INTELLECTUAL PROPERTY GmbH, priority 2010, published 2013):
pIC50: −log10 of the molar value.

The compounds below were run against T1, human kinase Mps-1 (Homo sapiens, UniProt P33981) (assay: Mps-1 kinase assay (TR-FRET)). Conditions: Mps1 IC50 [nM], N-terminally GST-tagged human full length recombinant Mps-1; 10 μM ATP; 1 μM biotinylated peptide substrate; 60 min at 22° C.
T1 construct: N-terminally GST-tagged human full length recombinant Mps-1 kinase; GST (N); purchased Invitrogen, Karslruhe, Germany PV4071
T1 sequence (P33981 1-857): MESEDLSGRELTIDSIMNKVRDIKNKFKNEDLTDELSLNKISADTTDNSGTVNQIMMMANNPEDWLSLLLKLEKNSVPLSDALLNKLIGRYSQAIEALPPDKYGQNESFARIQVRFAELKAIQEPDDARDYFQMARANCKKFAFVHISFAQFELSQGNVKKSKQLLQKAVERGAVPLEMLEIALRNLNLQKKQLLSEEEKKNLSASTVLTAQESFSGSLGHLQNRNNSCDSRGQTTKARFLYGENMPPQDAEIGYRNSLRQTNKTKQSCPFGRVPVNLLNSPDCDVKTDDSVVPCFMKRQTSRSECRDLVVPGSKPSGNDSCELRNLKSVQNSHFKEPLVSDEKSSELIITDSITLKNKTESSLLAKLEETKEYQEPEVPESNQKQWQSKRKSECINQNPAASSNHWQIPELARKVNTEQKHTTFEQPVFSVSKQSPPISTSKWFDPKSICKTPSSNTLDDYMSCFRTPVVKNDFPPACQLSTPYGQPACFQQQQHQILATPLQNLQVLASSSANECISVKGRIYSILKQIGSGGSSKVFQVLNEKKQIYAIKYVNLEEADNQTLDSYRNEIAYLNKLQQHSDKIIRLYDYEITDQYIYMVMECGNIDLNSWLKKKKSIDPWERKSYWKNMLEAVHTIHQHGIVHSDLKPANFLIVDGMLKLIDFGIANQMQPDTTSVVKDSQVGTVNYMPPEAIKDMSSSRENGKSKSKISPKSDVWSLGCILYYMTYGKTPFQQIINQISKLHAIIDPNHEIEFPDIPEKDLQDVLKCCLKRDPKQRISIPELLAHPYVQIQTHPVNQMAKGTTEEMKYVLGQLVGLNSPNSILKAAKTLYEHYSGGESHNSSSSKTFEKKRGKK
Format: biochemical

How did the IC50 turn out when `O=C(NC1CC1)c1ccc(-c2cnc3c(NCC(O)C(F)(F)F)nccn23)cc1O` (centres unmarked) [Example 7-82, N-cyclopropyl-2-hydroxy-4-{8-[(3,3,3-trifluoro-2-hydroxypropyl)amino]imi-dazo[1,2-a]pyrazin-3-yl}benzamide] was run?
The IC50 was 56.7 nM.

Which IC50 does the source give for `O=C(NC1CC1)c1ccc(-c2cnc3c(NCCC(F)(F)F)nccn23)cc1O` [Example 7-83, N-cyclopropyl-2-hydroxy-4-{8-[(3,3,3-trifluoropropyl)amino]imi-dazo[1,2-a]pyrazin-3-yl}benzamide] here?
The IC50 was 22.3 nM.

`CC(O)CNc1nccn2c(-c3ccc(C(=O)NC4CC4)c(O)c3)cnc12` (centres unmarked) [Example 7-84, N-cyclopropyl-2-hydroxy-4-{8-[(2-hydroxypropyl)amino]imi-dazo[1,2-a]pyrazin-3-yl}benzamide] was tested. Which IC50 did it give?
Its IC50 is 96.9 nM.

`Cn1cc(CNc2nccn3c(-c4ccc(C(=O)NC5CC5)c(O)c4)cnc23)cn1` [Example 7-85, N-cyclopropyl-2-hydroxy-4-(8-{[(1-methyl-1H-pyrazol-4-yl)methyl]amino}imi-dazo[1,2-a]pyrazin-3-yl)benzamide] was tested. Which IC50 did it give?
Its IC50 is 105 nM.

How did the IC50 turn out when `CCOC(C)CNc1nccn2c(-c3ccc(C(=O)NC4CC4)c(O)c3)cnc12` (centres unmarked) [Example 7-86, N-cyclopropyl-4-{8-[(2-ethoxypropyl)amino]imi-dazo[1,2-a]pyrazin-3-yl}-2-hydroxybenzamide] was run?
Its IC50 is 268 nM.

Which IC50 does the source give for `CC(C)(O)CNc1nccn2c(-c3ccc(C(=O)NC4CC4)c(O)c3)cnc12` [Example 7-87, N-cyclopropyl-2-hydroxy-4-{8-[(2-hydroxy-2-methylpropyl)amino]imi-dazo[1,2-a]pyrazin-3-yl}benzamide] here?
Its IC50 is 160 nM.

With `O=C(NC1CC1)c1ccc(-c2cnc3c(NCc4ccc(Cl)s4)nccn23)cc1O` [Example 7-88, 4-(8-{[(5-chlorothiophen-2-yl)methyl]amino}imi-dazo[1,2-a]pyrazin-3-yl)-N-cyclopropyl-2-hydroxybenzamide] as the compound, how does the IC50 read?
Its IC50 is 91.3 nM.

`O=C(NC1CC1)c1ccc(-c2cnc3c(NCC4CCCCO4)nccn23)cc1O` (centres unmarked) [Example 7-89, N-cyclopropyl-2-hydroxy-4-{8-[(tetrahydro-2H-pyran-2-ylmethyl)amino]imi-dazo[1,2-a]pyrazin-3-yl}benzamide] was tested. Which IC50 did it give?
The IC50 was 247 nM.

How did the IC50 turn out when `Cc1cc(-c2cnc3c(NCCO)nccn23)ccc1C(=O)NC1CC1` [Example 7-91, N-cyclopropyl-4-{8-[(2-hydroxyethyl)amino]imi-dazo[1,2-a]pyrazin-3-yl}-2-methylbenzamide] was run?
The IC50 was 363 nM.

Which IC50 does the source give for `Cc1cc(-c2cnc3c(NCCCN4CCOCC4)nccn23)ccc1C(=O)NC1CC1` [Example 7-92, N-cyclopropyl-2-methyl-4-(8-{[3-(morpholin-4-yl)propyl]amino}imi-dazo[1,2-a]pyrazin-3-yl)benzamide] here?
Its IC50 is 389 nM.

`Cc1cc(-c2cnc3c(NCCC(C)C)nccn23)ccc1C(=O)NC1CC1` [Example 7-93, N-cyclopropyl-2-methyl-4-{8-[(3-methylbutyl)amino]imi-dazo[1,2-a]pyrazin-3-yl}benzamide] was tested. Which IC50 did it give?
The IC50 was 13.2 nM.

With `Cc1cc(-c2cnc3c(NCC4CCCO4)nccn23)ccc1C(=O)NC1CC1` (centres unmarked) [Example 7-94, N-cyclopropyl-2-methyl-4-{8-[(tetrahydrofuran-2-ylmethyl)amino]imi-dazo[1,2-a]pyrazin-3-yl}benzamide] as the compound, how does the IC50 read?
Its IC50 is 80.8 nM.

`Cc1cc(-c2cnc3c(NCCCN4CCCC4=O)nccn23)ccc1C(=O)NC1CC1` [Example 7-95, N-cyclopropyl-2-methyl-4-(8-{[3-(2-oxopyrrolidin-1-yl)propyl]amino}imi-dazo[1,2-a]pyrazin-3-yl)benzamide] was tested. Which IC50 did it give?
Its IC50 is 562 nM.

With `COCCNc1nccn2c(-c3ccc(C(=O)NC4CC4)c(C)c3)cnc12` [Example 7-96, N-cyclopropyl-4-{8-[(2-methoxyethyl)amino]imi-dazo[1,2-a]pyrazin-3-yl}-2-methylbenzamide] as the compound, how does the IC50 read?
The IC50 was 229 nM.

How did the IC50 turn out when `Cc1cc(-c2cnc3c(NCc4ccccc4F)nccn23)ccc1C(=O)NC1CC1` [Example 7-97, N-cyclopropyl-4-{8-[(2-fluorobenzyl)amino]imi-dazo[1,2-a]pyrazin-3-yl}-2-methylbenzamide] was run?
The IC50 was 31.6 nM.

Which IC50 does the source give for `Cc1cc(-c2cnc3c(NCc4ccc(F)cc4)nccn23)ccc1C(=O)NC1CC1` [Example 7-98, N-cyclopropyl-4-{8-[(4-fluorobenzyl)amino]imi-dazo[1,2-a]pyrazin-3-yl}-2-methylbenzamide] here?
The IC50 was 39.6 nM.

For `Cc1cc(-c2cnc3c(NCCCCO)nccn23)ccc1C(=O)NC1CC1` [Example 7-99, N-cyclopropyl-4-{8-[(4-hydroxybutyl)amino]imi-dazo[1,2-a]pyrazin-3-yl}-2-methylbenzamide], which IC50 is on record?
The IC50 was 70.8 nM.

How did the IC50 turn out when `Cc1cc(-c2cnc3c(NCC(F)(F)F)nccn23)ccc1C(=O)NC1CC1` [Example 7-100] was run?
The IC50 was 217 nM.

With `Cc1cc(-c2cnc3c(NCc4cccs4)nccn23)ccc1C(=O)NC1CC1` [Example 7-102, N-cyclopropyl-2-methyl-4-{8-[(thiophen-2-ylmethyl)amino]imi-dazo[1,2-a]pyrazin-3-yl}benzamide] as the compound, how does the IC50 read?
The IC50 was 18.7 nM.

`Cc1cc(-c2cnc3c(NCCCO)nccn23)ccc1C(=O)NC1CC1` [Example 7-104, N-cyclopropyl-4-{8-[(3-hydroxypropyl)amino]imi-dazo[1,2-a]pyrazin-3-yl}-2-methylbenzamide] was tested. Which IC50 did it give?
Its IC50 is 124 nM.

`CC(=O)NCCNc1nccn2c(-c3ccc(C(=O)NC4CC4)c(C)c3)cnc12` [Example 7-106] was tested. Which IC50 did it give?
Its IC50 is 1470 nM.

`Cc1cc(-c2cnc3c(NCc4cccnc4)nccn23)ccc1C(=O)NC1CC1` [Example 7-108, N-cyclopropyl-2-methyl-4-{8-[(pyridin-3-ylmethyl)amino]imi-dazo[1,2-a]pyrazin-3-yl}benzamide] was tested. Which IC50 did it give?
Its IC50 is 123 nM.

For `Cc1cc(-c2cnc3c(NCc4ccncc4)nccn23)ccc1C(=O)NC1CC1` [Example 7-109, N-cyclopropyl-2-methyl-4-{8-[(pyridin-4-ylmethyl)amino]imi-dazo[1,2-a]pyrazin-3-yl}benzamide], which IC50 is on record?
Its IC50 is 166 nM.

For `Cc1cc(-c2cnc3c(NCc4ccco4)nccn23)ccc1C(=O)NC1CC1` [Example 7-110, N-cyclopropyl-4-{8-[(furan-2-ylmethyl)amino]imi-dazo[1,2-a]pyrazin-3-yl}-2-methylbenzamide], which IC50 is on record?
The IC50 was 28.1 nM.

Same assay, conditions: N-terminally GST-tagged human full length recombinant Mps-1; 10 μM ATP; 1 μM biotinylated peptide substrate; 60 min at 22° C.; read-out: Mps1 IC50

`CCCNc1nccn2c(-c3ccc(C(=O)NC4CC4)c(C)c3)cnc12` [Example 7-90, N-cyclopropyl-2-methyl-4-[8-(propylamino)imidazo[1,2-a]pyrazin-3-yl]benzamide] was tested. Which pIC50 did it give?
The pIC50 was 7.53.

`Cc1cc(-c2cnc3c(NCc4ccccc4)nccn23)ccc1C(=O)NC1CC1` [Example 7-101, 4-[8-(benzylamino)imidazo[1,2-a]pyrazin-3-yl]-N-cyclopropyl-2-methylbenzamide] was tested. Which pIC50 did it give?
The pIC50 was 7.47.

`CCNc1nccn2c(-c3ccc(C(=O)NC4CC4)c(C)c3)cnc12` [Example 7-103, N-cyclopropyl-4-[8-(ethylamino)imidazo[1,2-a]pyrazin-3-yl]-2-methylbenzamide] was tested. Which pIC50 did it give?
Its pIC50 is 6.84.

With `CCCCNc1nccn2c(-c3ccc(C(=O)NC4CC4)c(C)c3)cnc12` [Example 7-105, 4-[8-(butylamino)imidazo[1,2-a]pyrazin-3-yl]-N-cyclopropyl-2-methylbenzamide] as the compound, how does the pIC50 read?
The pIC50 was 7.73.

With `Cc1cc(-c2cnc3c(NCC4CC4)nccn23)ccc1C(=O)NC1CC1` [Example 7-107, N-cyclopropyl-4-{8-[(cyclopropylmethyl)ami-no]imidazo[1,2-a]pyrazin-3-yl}-2-methylbenzamide] as the compound, how does the pIC50 read?
Its pIC50 is 7.73.
